Assay results as given in patent US20210009542A1 (Calico Life Sciences LLC, priority 2018, published 2021).
Where two headings read alike, the source gives them in different places.

Columns and labels:
[1] = target: T1, His tagged PTPN2 (TC45) protein (Homo sapiens, UniProt P17706); test: Mobility shift assay (MSA) for potency of PTPN2 inhibitors; assay type: biochemical
T1 construct: made in house
T1 sequence (P17706 with tags, fused parts or gaps isoform P17706-2): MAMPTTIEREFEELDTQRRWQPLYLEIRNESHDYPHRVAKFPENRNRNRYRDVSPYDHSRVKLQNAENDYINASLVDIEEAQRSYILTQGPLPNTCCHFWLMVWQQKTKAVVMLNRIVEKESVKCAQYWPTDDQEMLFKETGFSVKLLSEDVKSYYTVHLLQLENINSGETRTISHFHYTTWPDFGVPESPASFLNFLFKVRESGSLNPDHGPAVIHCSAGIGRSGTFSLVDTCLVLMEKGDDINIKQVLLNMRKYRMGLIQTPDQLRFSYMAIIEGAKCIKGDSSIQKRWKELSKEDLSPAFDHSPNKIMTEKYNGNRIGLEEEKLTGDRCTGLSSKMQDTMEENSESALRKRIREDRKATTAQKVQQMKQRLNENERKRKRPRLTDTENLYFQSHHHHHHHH
In short: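 His-tagged PTPN2 TC45 (0.5 nM) was preincubated with compound (12-point, 1:3) for 10 min at room temperature in 50 mM HEPES pH 7.5, 1 mM EGTA, 10 mM EDTA, 0.01% Tween 20, 2 mM DTT. OG488-labelled phospho-insulin-receptor peptide ([…]) was then added for 10 min. After quenching, dephosphorylation was measured by microfluidic mobility shift and IC50 derived from % inhibition.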

[2] = tested on: B16F10 mouse melanoma cells; test: B16F10 IFNγ-induced cellular growth inhibition assay; assay type: cell-based; conditions: for inhibition at 33 µM: Mus musculus, B16-F10
In short: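 B16F10 cells (500/well, DMEM + 10% FBS) dosed in triplicate at 100 μM to 0.001 μM (0.1% DMSO) with or without 0.5 ng/mL final mouse IFNγ. Confluence imaged every 6 h for 5 days; % growth inhibition calculated versus DMSO/with-IFNγ control once DMSO/no-IFNγ wells exceeded 95% confluence.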

[3] = tested on: Granzyme B+ cells within CD8+ T cells; test: Granzyme B staining of CD8 T cells flow cytometry assay in mouse spleen; assay type: in vivo; conditions: 300 mg/kg/dose oral BID; day 8 of dosing, 2 hours post 16th dose
Experimental: Mice were sacrificed on day 8 of dosing with indicated PTPN2/1B inhibitor (2 hours after the 16th dose) and spleens were excised. Spleens were dissociated with a gentleMACS dissociator (Miltenyi Biotec, Bergisch Gladbach, Germany), red blood cells lysed, and single cell suspensions were prepared. Splenocytes were stained with Zombie UV™ Fixable Viability kit (Biolegend, San Diego, Calif.) diluted in Dulbecco's PBS for 10 minutes at room temperature to exclude dead cells followed by staining for surface markers for 45 minutes on ice using the following flow cytometry antibodies diluted in autoMACS Running Buffer (Miltenyi Biotec, Bergisch Gladbach, Germany): Brilliant Violet 510-labeled anti-CD45, Brilliant Ultraviolet 395-labeled anti-CD3, Brilliant Violet 786-labeled anti-CD4, APC/Cy7-labeled anti-CD8. […] After staining, cells were washed twice with autoMACS Running Buffer, and the samples were acquired on a BD LSRFortessa™ X20 flow cytometers (BD Biosciences, San Jose, Calif.) and analyzed with FLowJo V10 software (FlowJo, Ashland, Oreg.). […]

IP10 = test: Cytokine measurement in mouse plasma (IP10); assay type: in vivo; conditions: 300 mg/kg/dose oral BID; day 8 of dosing, 2 hours post 16th dose
Experimental: Whole blood was drawn into sodium heparin by cardiac puncture from mice on day 8 of dosing with indicated PTPN2/1B inhibitor (2 hours after the 16th dose) and plasma was prepared by centrifugation. Cytokines in plasma were measured using the Th1/Th2 Cytokine & Chemokine 20-Plex Mouse ProcartaPlex™ Panel 1 (Invitrogen, Carlsbad, Calif.). IP10 levels were expressed as fold-changes over the vehicle control animal group.

[4] = +0.5 ng/mL IFNγ, 33 μM compound, relative to DMSO control, read-out: % B16F10 growth inhibition (+0.5 ng/mL IFNγ) @ 33 μM
[5] = no IFNγ, 33 μM compound, read-out: % B16F10 growth inhibition (no IFNγ) @ 33 μM

SMILES | IC50 ([1]; Table 4, read-out: PTPN2 MSA IC50) | IC50 ([1]; read-out: PTPN2 IC50) | IC50 ([1]; read-out: PTPN2 MSA IC50) | inhibition at 33 µM ([2]; 33 μM, in the presence of IFNγ, read-out: growth inhibition in the presence of IFNγ compared to DMSO controls) | inhibition at 33 µM [2, 4] | inhibition at 33 µM [2, 5] | % B16F10 growth inhibition (+0.5 ng/mL IFNγ) @ 33 μM ([2]; Table 4, +0.5 ng/mL IFNγ, 33 μM) | % B16F10 growth inhibition (no IFNγ) @ 33 μM ([2]; Table 4, no IFNγ, 33 μM) | growth inhibition in the absence of IFNγ ([2]; absence of IFNγ) | % GzB+ cells within splenic CD8+ T cells [fold change over vehicle] [3] | IP10 in plasma [fold increase over vehicle] (IP10)
COc1ccc2cc(O)c(N3CC(=O)NS3(=O)=O)c(F)c2c1 [Compound 124, 5-(1-fluoro-3-hydroxy-7-methoxynaphthalen-2-yl)-1λ^6,2,5-thiadiazolidine-1,1,3-trione] | 1 to 10 nM | 4.4 nM | 1 to 10 nM | 60 to 90% | 60 to 90% | < 25% | B (a percent growth inhibition of 60-90%) | D (a percent growth inhibition of <25%) | no observed growth inhibition | 2.9 fold | 2.5 fold
CC(C)(O)CCOc1ccc2cc(O)c(N3CC(=O)NS3(=O)=O)c(F)c2c1 [Compound 182, 5-[1-fluoro-3-hydroxy-7-(3-hydroxy-3-methylbutoxy)naphthalen-2-yl]-1λ^6,2,5-thiadiazolidine-1,1,3-trione] |  |  | < 1 nM |  | 60 to 90% | < 25% |  |  |  |  | 
